One series relates to HepG2 cells. The series can be described thus: HepG2 cell apoptosis by flow cytometry (Annexin V-FITC/PI). In kind it is cell-based. As to conditions: 24 h. The method, then:
HepG2 cells were cultured in Roswell Park Memorial Institute (RPMI) 1640 medium (GIBCO, Grand Island, NY, USA) supplemented with 10% heat-inactivated fetal bovine serum (PAN Biotech GmbH, Aidenbach, Germany), 100 U/mL penicillin, and 100 μg/mL streptomycin. The cells were maintained in a humidified atmosphere with 5% CO2 at 37 °C. Upon reaching 90% confluence, the cells were prepared as single-cell suspensions at a density of 1 × 10^4 cells/mL by treatment with 0.25% trypsin with 0.02% EDTA and then dispensed into 12-well plates (Corning, NY, USA) with a total volume of 1.5 mL per well. After culturing for 24 h, the medium was discarded, and the cells were incubated with fresh medium or medium containing different hepatotoxic compounds at various concentrations for an additional 24 h. […] After treatment, the cells were collected for apoptosis analysis. To investigate the effects of the hepatotoxic compounds on HepG2 cell apoptosis, flow cytometry was performed with a FACSCalibur flow cytometer (BD Biosciences) using an Annexin V-FITC apoptosis detection kit. The cells were prepared according to the manufacturer’s instructions. Briefly, the collected cell pellets were washed three times by centrifugation at 2000 rpm and 4 °C for 5 min with PBS and resuspended in binding buffer. Then, the cells were incubated with Annexin V-FITC for 15 min, propidium iodide (PI) was added, and the cells were incubated for another 5 min. The whole labeling process was performed in the dark. After fluorescent labeling, the cell suspension was immediately analyzed by flow cytometry. Cells in the early phases of apoptosis can bind Annexin V-FITC but exclude PI, while cells in late apoptosis or those that are necrotic can be stained with Annexin V-FITC and PI simultaneously.
(In general: A flow cytometer gives signals particle by particle.)

The test system of the next series is caspase-9. The series can be described thus: Western blot, caspase-9 expression in HepG2 cells. In kind it is cell-based. Conditions: 24 h, high concentration (sagittatoside A 49, icariside I 50, baohuoside I 32, icaritin 3.8 μg/mL), vs untreated cells. The method, then:
(§1) To explore the mechanism of apoptosis induced by the hepatotoxic compounds, the expression of key proteins related to apoptosis, including Bax, Bcl-2, Caspase-3 and Caspase-9, was assessed by western blotting. HepG2 cells were treated with different concentrations of the hepatotoxic compounds for 24 h and collected with a cell scraper. The concentrations of sagittatoside A were set to 12.2, 24.5, and 49 μg/mL; those of icariside I were 12.5, 25, and 50 μg/mL; baohuoside I was used at 8, 16, and 32 μg/mL; and icaritin was tested at 0.9, 1.9 and 3.8 μg/mL. The cells were washed twice with PBS and lysed in total protein cell lysis buffer. Protein concentrations were determined using a BCA protein assay kit (Thermo Fisher Scientific, Waltham, MA, USA). Then, to destroy the 3-dimensional protein structure, the proteins in the loading buffer were heated at 95 °C for 5 min. An equal amount of protein from each sample was separated by SDS-PAGE on 10% SDS–polyacrylamide gels. After the protein was transferred to a polyvinylidene difluoride membrane (Millipore, Bedford, MA, USA), the membrane was incubated in blocking buffer (5% nonfat dairy milk in TBST) for 2 h and probed with various antibodies (1:1000) overnight at 4 °C. The membrane was then probed with a secondary antibody (1:5000) for 2 h at room temperature, and detection was performed with an enhanced chemiluminescence kit (Millipore, Bedford, MA, USA). β-Actin was used as the control to confirm equal loading. Densitometry index analysis of the bands was conducted using a gel imagery system. The changes in the protein expression levels are expressed as percentages relative to the levels measured in the corresponding control groups.
On the technique in general: Immunoblotting shows a protein as a band on a membrane.

Series [1] in a line: in vitro. In kind it is in vitro ADME, mice. Conditions: mouse, microsomes; for amount remaining: 1 h, 5 μM.
Series [2] is described as follows: in vitro. Conditions: rhesus monkey, microsomes; for amount remaining: 1 h, 5 μM. It is filed as in vitro ADME, rhesus monkeys.
The nature of series [3]: in vitro. It is filed as in vitro ADME, mice. Conditions: mouse, microsomes; for final amount remaining: 60 min, 5 μM.
Series [4] can be described thus: in vitro. In kind it is in vitro ADME, rhesus monkeys. As to conditions: rhesus monkey, microsomes; for final amount remaining: 60 min, 5 μM.
Series [5] can be described thus: in vitro. Conditions: beagle, dog, microsomes; for final amount remaining: 60 min, 5 μM. It is filed as in vitro ADME, beagle dogs.
The subject of the next series is Bax/Bcl-2. Description: Western blot, Bax/Bcl-2 ratio in HepG2 cells. Conditions: 24 h, high concentration (sagittatoside A 49, icariside I 50, baohuoside I 32, icaritin 3.8 μg/mL), vs untreated cells. In kind it is cell-based. The method, then: as §1, with “The membrane was then probed with a secondary antibody (1:5000) for 2 h at room temperature, and detection was performed with an enhanced chemiluminescence kit (Millipore, Bedford, MA, USA). β-Actin was used as the control to confirm equal loading. Densitometry index analysis of the bands was conducted using a gel imagery system.” left out

The test system of a further series is caspase-3. The series can be described thus: Western blot, caspase-3 expression in HepG2 cells. As to conditions: 24 h, high concentration (sagittatoside A 49, icariside I 50, baohuoside I 32, icaritin 3.8 μg/mL), vs untreated cells. In kind it is cell-based. The procedure: as §1, with “The membrane was then probed with a secondary antibody (1:5000) for 2 h at room temperature, and detection was performed with an enhanced chemiluminescence kit (Millipore, Bedford, MA, USA). β-Actin was used as the control to confirm equal loading. Densitometry index analysis of the bands was conducted using a gel imagery system.” left out

Take `COc1ccc(-c2oc3c(CC=C(C)C)c(O[C@@H]4O[C@H](CO)[C@@H](O)[C@H](O)[C@H]4O)cc(O)c3c(=O)c2O)cc1` [icariside I]: the apoptosis rate in the series on HepG2 cells (50 μg/mL, mean ± SD n = 3, no change vs control) is 2.39 ± 0.34%. For the same molecule, the caspase-9 expression result with caspase-9 is on record as “significant increase”. The CLint scaled at 5 μM was determined as 80.4 mL/min/kg in “in vitro [1]”; 38.1 mL/min/kg in “in vitro [2]”; 79.3 mL/min/kg in “in vitro [3]”; 36.4 mL/min/kg in the series “in vitro [4]”; 24.7 mL/min/kg in the series “in vitro [5]”. Also, the amount remaining in the series “in vitro [1]” worked out at 7.69 ± 1.17%; in the series “in vitro [2]”, 6.50 ± 0.49%. Moreover, the final amount remaining in “in vitro [3]” stood at 12.18 ± 0.64%; in the series “in vitro [4]” it was 17.23 ± 5.20%; in the series “in vitro [5]”, 30.79 ± 3.26%.
`COc1ccc(-c2oc3c(CC=C(C)C)c(O)cc(O)c3c(=O)c2O)cc1` [icaritin] registered an apoptosis rate in the series with HepG2 cells (3.8 μg/mL, mean ± SD n = 3, p < 0.01 vs control) of 25.93 ± 0.66%. The Bax/Bcl-2 ratio result with Bax/Bcl-2 was “increased”. In the series on caspase-9, the caspase-9 expression result is given as “significant increase”. In addition, the caspase-3 expression result in the series on caspase-3 is “significant increase”. Besides, the amount remaining in the series “in vitro [1]” was found to be 28.55 ± 0.04%; in “in vitro [2]” it was 24.73 ± 2.38%. For the same molecule, the final amount remaining in “in vitro [3]” is 7.73 ± 0.17%; in the series “in vitro [4]”, 14.86 ± 0.76%; in “in vitro [5]”, 4.42 ± 0.67%.
On to `COc1ccc(-c2oc3c(CC=C(C)C)c(O)cc(O)c3c(=O)c2O[C@@H]2O[C@@H](C)[C@H](O)[C@@H](O)[C@H]2O)cc1` [baohuoside I], for which the apoptosis rate with HepG2 cells (32 μg/mL, mean ± SD n = 3, p < 0.05 vs control) is 3.93 ± 0.20%. Further, the Bax/Bcl-2 ratio entry with Bax/Bcl-2 was “increased”. Moreover, the caspase-9 expression result with caspase-9 is “significant increase”. Besides, the caspase-3 expression entry in the series with caspase-3 is “significant increase”. The amount remaining in the series “in vitro [1]” is on record as 28.58 ± 4.12%; in “in vitro [2]”, 12.41 ± 1.02%. The final amount remaining in “in vitro [3]” is 11.64 ± 1.63%; in the series “in vitro [4]” it was 0.86 ± 0.17%; in “in vitro [5]”, 5.69 ± 0.33%. Also, the CLint scaled at 5 μM in the series “in vitro [5]” came out at 28.4 mL/min/kg.

One may read the CLint scaled as the rate of metabolic loss divided by the concentration. Read a low CLint scaled as slow turnover.

Values taken from paper PMC10975178, “Evaluation on the Potential for Hepatotoxic Components from Herba Epimedii to Induce Apoptosis in HepG2 Cells and the Analysis of the Influence of Metabolism in Liver Microsomes” (Molecules, 2024).
